Experimental findings from BindingDB's records for doi:10.1021/cb600276q (Genentech, 2006) are described below.

Common to all, as to experiment: Fluorescence Polarization Affinity Measurements.
What all share (conditions): pH 7.2; 22 °C
(In general: In fluorescence polarisation assays a small probe gives low polarisation when free and higher when bound to something large.)

Assay [1] addresses T1, Baculoviral IAP repeat-containing protein 3 [252-340] (Homo sapiens, UniProt Q13489).
T1 construct: 252-340
The procedure: (§1) Samples for fluorescence polarization affinity measurements were prepared by addition of serial dilutions of target protein to each well containing antagonist and polarization probe in the buffer. Samples were read after 30-min incubation. Fluorescence polarization values were plotted as a function of the antagonist concentration, and the IC50 values were obtained by fitting the data to a four-parameter equation using KaleidaGraph software. Ki values for the antagonists were determined from the IC50 values.

Assay [2] deals with T2, Baculoviral IAP repeat-containing protein 2 [266-354] (Homo sapiens, UniProt Q13490).
T2 construct: 266-354
The method, then:
as §1

Assay [3] addresses T3, E3 ubiquitin-protein ligase XIAP [241-356] (Homo sapiens, UniProt P98170).
T3 construct: 241-356
The procedure: as §1

The target of assay [4] is T4, Complex of Baculoviral IAP repeat-containing protein 7 [1-159,S150G] and E3 ubiquitin-protein ligase XIAP [336-348] (Homo sapiens, UniProt Q96CA5, S150G).
T4 construct: 1-159; 336-348
The method, then:
as §1

Where a SMILES comes first, the peptide text is derived from it.

`CN[C@@H](C)C(=O)N[C@H]1CCC[C@H]2SC[C@@H](C(=O)Nc3cc(C)nn3-c3ccccc3)N2C1=O` [(3R,6S,9aR)-N-(3-methyl-1-phenyl-1H-pyrazol-5-yl)-6-[(2S)-2-(methylamino)propanamido]-5-oxo-octahydroazepino[2,1-b][1,3]thiazole-3-carboxamide]: the Ki (usually the equilibrium dissociation constant of an inhibitor or competing ligand from its target) in assay [1] is 490 nM; in assay [2], 110 nM.
Consider `CC(C)[C@H](NC(=O)[C@H](C)N)C(=O)N1CCC[C@H]1C(=O)N[C@@H](Cc1c[nH]c2ccccc12)C(=O)O` [L-alanyl-L-valyl-L-prolyl-L-tryptophan] (H-AVPW-OH), for which the inhibition constant Ki in assay [3] is 50 nM; in assay [4] it was 40 nM; in assay [1], 70 nM; in assay [2] it was 30 nM.
Regarding `CN[C@@H](C)C(=O)N[C@H]1CCC[C@H]2SC(C)(C)[C@@H](C(=O)Nc3cc(C)nn3-c3ccccc3)N2C1=O` [(3R,6S,9aR)-2,2-dimethyl-N-(3-methyl-1-phenyl-1H-pyrazol-5-yl)-6-[(2S)-2-(methylamino)propanamido]-5-oxo-octahydroazepino[2,1-b][1,3]thiazole-3-carboxamide], the Ki is 130 nM in assay [1] and 50 nM in assay [2].
